Here are results for 24 compounds from patent US8163779B2, “Glucokinase activators” (Takeda San Diego, Inc., priority 2006, dated 2012).

pEC50: −log10 of the molar value. Where only a bound is given, the exact number is not on record here.

In this assay the target is T1, glucokinase (GK) (Homo sapiens, UniProt P35557).
T1 construct: I.D. No. 1 corresponds to residues 12-465 of glucokinase; made in house; host or cells: E. coli DH10b-T1r
T1 sequence (P35557 with tags, fused parts or gaps isoform P35557-2): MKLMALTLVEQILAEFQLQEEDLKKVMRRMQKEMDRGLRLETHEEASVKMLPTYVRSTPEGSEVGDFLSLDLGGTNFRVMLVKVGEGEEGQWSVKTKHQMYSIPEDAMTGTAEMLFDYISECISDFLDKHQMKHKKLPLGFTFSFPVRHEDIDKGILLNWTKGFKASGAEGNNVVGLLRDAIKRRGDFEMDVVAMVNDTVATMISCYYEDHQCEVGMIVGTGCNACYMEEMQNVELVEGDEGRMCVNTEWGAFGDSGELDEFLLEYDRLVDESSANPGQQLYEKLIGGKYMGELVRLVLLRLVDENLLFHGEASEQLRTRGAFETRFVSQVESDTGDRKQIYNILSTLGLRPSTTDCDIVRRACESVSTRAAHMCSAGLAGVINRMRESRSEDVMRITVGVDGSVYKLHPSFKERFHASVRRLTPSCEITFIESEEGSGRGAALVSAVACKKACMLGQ
Briefly: enzymatic glucokinase activity assay (ATP consumption, KinaseGlo luminescence). Particulars: recombinant GK residues 12-465; 5 μM ATP, 5 mM Glucose; Kact = concentration that displays 50% of the maximal increase in GK activity; read-out: pKact. It is filed as biochemical. An excerpt:
The activity of compounds as glucokinase activators may be assayed in vitro, in vivo or in a cell line. Provided below is an enzymatic glucokinase activity assay.
Purified glucokinase may be obtained as follows. […] SEQ.
The expression of recombinant glucokinase protein may be carried out by transformation and growth of DH10b-T1r E. coli cells incorporating the (pFLAG-CTC) plasmid in LB media. Protein expression can be induced in this system by the addition of IPTG to the culture medium.
Recombinant protein may be isolated from cellular extracts by passage over Sepharose Q Fast Flow resin (Pharmacia). This partially purified GK extract may then be further purified by a second passage over Poros HQ 10 (Applied Biosystems). The purity of GK may be determined on denaturing SDS-PAGE gel. Purified GK may then be concentrated to a final concentration of 20.0 mg/ml. After flash freezing in liquid nitrogen, the proteins can be stored at −78° C. in a buffer containing 25 mM TRIS-HCl pH 7.6, 50 mM NaCl, and 0.5 mM TCEP.
The activation properties of compounds for GK may be determined using a black 384-well-plate format under the following reaction conditions: 25 mM Hepes pH 7.2, 25 mM NaCl, 10 mM MgCl2, 0.01% Brij35, 1 mM DTT, 5 μM ATP, 5 mM Glucose 2% DMSO. The amount of ATP consumed may be determined quantitatively by addition of equal volume of luciferase reagent (luciferase+beetle luciferin—KinaseGlo Luminescent Kinase Assay kit from Promega). The luminescence intensity may be measured by using the Analyst HT from LJL Biosystems.
The reaction mixture may then be incubated at room temperature for 60 min, and quenched and developed by addition of 10 μL of luciferase reagent. Luminescence intensities of the resulting reaction mixtures may be measured after a 10 min incubation at room temperature. The luminescence intensity may be measured by using the Analyst HT from LJL Biosystems.
pKact values may be calculated by non-linear curve fitting of the compound concentrations and luminescence intensities to a standard inhibition/activation equation.
As to `Cc1cc(S(=O)(=O)C2CC2)cc(=O)n1C(CC(C)(C)C)C(=O)Nc1ncc(Cl)s1` (stereo not drawn) [Example 25, N-(5-chlorothiazol-2-yl)-2-(4-(cyclopropylsulfonyl)-6-methyl-2-oxopyridin-1(2H)-yl)-4,4-dimethylpentanamide], the pEC50 was over 5.80. With `CC#CCC(C(=O)Nc1ncc(Cl)s1)n1ccc(S(C)(=O)=O)cc1=O` (stereo not drawn) [Example 26, N-(5-chlorothiazol-2-yl)-2-(4-(methylsulfonyl)-2-oxopyridin-1(2H)-yl)hex-4-ynamide], the pEC50 was under 4.80. For the compound `COc1ccc(CC(C(=O)Nc2nccs2)n2c(C)cc(S(=O)(=O)C3CCCC3)cc2=O)cc1` (stereo not drawn) [Example 27, 2-(4-(cyclopentylsulfonyl)-6-methyl-2-oxopyridin-1(2H)-yl)-3-(4-methoxyphenyl)-N-(thiazol-2-yl)propanamide], the pEC50 is under 4.80. The same measure for `Cc1cc(S(=O)(=O)C2CCCC2)cc(=O)n1C(Cc1ccc(O)cc1)C(=O)Nc1nccs1` (stereo not drawn) [Example 28, 2-(4-(cyclopentylsulfonyl)-6-methyl-2-oxopyridin-1(2H)-yl)-3-(4-hydroxyphenyl)-N-(thiazol-2-yl)propanamide]: under 4.80; for `O=C(Nc1ncc(Cl)s1)[C@@H](CC1CCOCC1)n1ccc(S(=O)(=O)C2CC2)cc1=O` [Example 29, (R)-N-(5-chlorothiazol-2-yl)-2-(4-(cyclopropylsulfonyl)-2-oxopyridin-1(2H)-yl)-3-(tetrahydro-2H-pyran-4-yl)propanamide]: under 4.80. In the case of `O=C(Nc1ncc(Cl)s1)[C@H](CC1CCOCC1)n1ccc(S(=O)(=O)C2CC2)cc1=O` [Example 30, (S)-N-(5-chlorothiazol-2-yl)-2-(4-(cyclopropylsulfonyl)-2-oxopyridin-1(2H)-yl)-3-(tetrahydro-2H-pyran-4-yl)propanamide], the pEC50 was over 5.80. Regarding `O=C(Nc1ncc(Cl)s1)[C@@H](CC1CCOCC1)n1ccc(S(=O)(=O)C2CCCC2)cc1=O` [Example 31, (R)-N-(5-chlorothiazol-2-yl)-2-(4-(cyclopentylsulfonyl)-2-oxopyridin-1(2H)-yl)-3-(tetrahydro-2H-pyran-4-yl)propanamide], the pEC50 is under 4.80.

As to `O=C(Nc1ncc(Cl)s1)[C@H](CC1CCOCC1)n1ccc(S(=O)(=O)C2CCCC2)cc1=O` [Example 32, (S)-N-(5-chlorothiazol-2-yl)-2-(4-(cyclopentylsulfonyl)-2-oxopyridin-1(2H)-yl)-3-(tetrahydro-2H-pyran-4-yl)propanamide], the pEC50 is over 5.80. Consider `O=C(Nc1ncc(F)s1)[C@@H](CC1CCOCC1)n1ccc(S(=O)(=O)C2CCCC2)cc1=O` [Example 33, (R)-2-(4-(cyclopentylsulfonyl)-2-oxopyridin-1(2H)-yl)-N-(5-fluorothiazol-2-yl)-3-(tetrahydro-2H-pyran-4-yl)propanamide], for which the pEC50 is 4.80 to 5.80.

In the case of `O=C(Nc1ncc(F)s1)[C@H](CC1CCOCC1)n1ccc(S(=O)(=O)C2CCCC2)cc1=O` [Example 34, (S)-2-(4-(cyclopentylsulfonyl)-2-oxopyridin-1(2H)-yl)-N-(5-fluorothiazol-2-yl)-3-(tetrahydro-2H-pyran-4-yl)propanamide], the pEC50 was over 5.80. As to `O=C(Nc1ncc(F)s1)[C@H](CC1CCOCC1)n1ccc(S(=O)(=O)C2CC2)cc1=O` [Example 35, (S)-2-(4-(cyclopropylsulfonyl)-2-oxopyridin-1(2H)-yl)-N-(5-fluorothiazol-2-yl)-3-(tetrahydro-2H-pyran-4-yl)propanamide], the pEC50 is over 5.80. `O=C(Nc1ncc(F)s1)[C@@H](CC1CCOCC1)n1ccc(S(=O)(=O)C2CC2)cc1=O` [Example 36, (R)-2-(4-(cyclopropylsulfonyl)-2-oxopyridin-1(2H)-yl)-N-(5-fluorothiazol-2-yl)-3-(tetrahydro-2H-pyran-4-yl)propanamide]: the pEC50 was under 4.80.

Turning to `Cc1cc(S(=O)(=O)C2CCCC2)cc(=O)n1[C@H](CC1CCOCC1)C(=O)Nc1ncc(Cl)s1` [Example 37, (R)-N-(5-chlorothiazol-2-yl)-2-(4-(cyclopentylsulfonyl)-6-methyl-2-oxopyridin-1(2H)-yl)-3-(tetrahydro-2H-pyran-4-yl)propanamide], the pEC50 is 4.80 to 5.80. `Cc1cc(S(=O)(=O)C2CCCC2)cc(=O)n1[C@@H](CC1CCOCC1)C(=O)Nc1ncc(Cl)s1` [Example 38, (S)-N-(5-chlorothiazol-2-yl)-2-(4-(cyclopentylsulfonyl)-6-methyl-2-oxopyridin-1(2H)-yl)-3-(tetrahydro-2H-pyran-4-yl)propanamide]: the pEC50 is over 5.80.

As to `Cc1cc(S(=O)(=O)C2CCCC2)cc(=O)n1[C@H](CC1CCOCC1)C(=O)Nc1ncc(F)s1` [Example 39, (R)-2-(4-(cyclopentylsulfonyl)-6-methyl-2-oxopyridin-1(2H)-yl)-N-(5-fluorothiazol-2-yl)-3-(tetrahydro-2H-pyran-4-yl)propanamide], the pEC50 was under 4.80.

Consider `Cc1cc(S(=O)(=O)C2CCCC2)cc(=O)n1[C@@H](CC1CCOCC1)C(=O)Nc1ncc(F)s1` [Example 40, (S)-2-(4-(cyclopentylsulfonyl)-6-methyl-2-oxopyridin-1(2H)-yl)-N-(5-fluorothiazol-2-yl)-3-(tetrahydro-2H-pyran-4-yl)propanamide], for which the pEC50 is over 5.80. With `O=C(Nc1ccc(Cl)cn1)[C@@H](CC1CCOCC1)n1ccc(S(=O)(=O)C2CCCC2)cc1=O` [Example 41, (R)-N-(5-chloropyridin-2-yl)-2-(4-(cyclopentylsulfonyl)-2-oxopyridin-1(2H)-yl)-3-(tetrahydro-2H-pyran-4-yl)propanamide], the pEC50 is under 4.80. As for `O=C(Nc1ccc(Cl)cn1)[C@H](CC1CCOCC1)n1ccc(S(=O)(=O)C2CCCC2)cc1=O` [Example 42, (S)-N-(5-chloropyridin-2-yl)-2-(4-(cyclopentylsulfonyl)-2-oxopyridin-1(2H)-yl)-3-(tetrahydro-2H-pyran-4-yl)propanamide], the pEC50 was over 5.80.

With `Cc1ccc(S(=O)(=O)c2cc(C)n(C(CC(C)(C)C)C(=O)Nc3ncc(F)s3)c(=O)c2)cc1` (stereo not drawn) [Example 43, N-(5-fluorothiazol-2-yl)-4,4-dimethyl-2-(6-methyl-2-oxo-4-tosylpyridin-1(2H)-yl)pentanamide], the pEC50 was 4.80 to 5.80.

Turning to `COC(=O)c1cnc(NC(=O)[C@H](CC2CCOCC2)n2ccc(S(=O)(=O)C3CCCC3)cc2=O)s1` [Example 45, (5)-methyl 2-(2-(4-(cyclopentylsulfonyl)-2-oxopyridin-1(2H)-yl)-3-(tetrahydro-2H-pyran-4-yl)propanamido)thiazole-5-carboxylate], the pEC50 was over 5.80. The same measure for `NC(=O)c1ccc(NC(=O)[C@H](CC2CCOCC2)n2ccc(S(=O)(=O)C3CCCC3)cc2=O)nc1` [Example 46, (S)-6-(2-(4-(cyclopentylsulfonyl)-2-oxopyridin-1(2H)-yl)-3-(tetrahydro-2H-pyran-4-yl)propanamido)nicotinamide]: over 5.80.

For the compound `NC(=O)c1ccc(NC(=O)[C@@H](CC2CCOCC2)n2ccc(S(=O)(=O)C3CCCC3)cc2=O)nc1` [Example 47, (R)-6-(2-(4-(cyclopentylsulfonyl)-2-oxopyridin-1(2H)-yl)-3-(tetrahydro-2H-pyran-4-yl)propanamido)nicotinamide], the pEC50 is under 4.80. As to `COc1ccc2nc(NC(=O)[C@@H](CC3CCOCC3)n3ccc(S(=O)(=O)C4CC4)cc3=O)sc2n1` [Example 48, (R)-2-(4-(cyclopropylsulfonyl)-2-oxopyridin-1(2H)-yl)-N-(5-methoxythiazolo[5,4-b]pyridin-2-yl)-3-(tetrahydro-2H-pyran-4-yl)propanamide], the pEC50 is 4.80 to 5.80. Consider `COc1ccc2nc(NC(=O)[C@H](CC3CCOCC3)n3ccc(S(=O)(=O)C4CC4)cc3=O)sc2n1` [Example 49, (S)-2-(4-(cyclopropylsulfonyl)-2-oxopyridin-1(2H)-yl)-N-(5-methoxythiazolo[5,4-b]pyridin-2-yl)-3-(tetrahydro-2H-pyran-4-yl)propanamide], for which the pEC50 was over 5.80.
